Five molecules from US20230293535A1, “ERBB/BTK INHIBITORS” (Dizal (Jiangsu) Pharmaceutical Co., Ltd., priority 2018, published 2023) can be followed below.

Data set [1] addresses T1, human EGFR exon 20 H773_V774insNPH (Homo sapiens, UniProt P00533, INS773NPH).
T1 construct: host or cells: Ba/F3
Description: EGFR Exon20 NPH insertion cellular phosphorylation inhibition (MSD pEGFR Y1068/total EGFR).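 Also: IL3-independent Ba/F3 cells with constitutively phosphorylated EGFR, compound exposure at 37 °C under 5% CO2, electrochemiluminescent MSD measurement of the p-EGFR to total EGFR ratio.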 Type of data set: cell-based. The conditions noted are these: Ba/F3 EGFR NPH ins cells, 4 h compound, p-EGFR(Y1068)/total EGFR.

Data set [2] deals with T2, human EGFR exon 20 V769_D770insASV (Homo sapiens, UniProt P00533, INS769ASV).
T2 construct: expressed in transfected cells; host or cells: Ba/F3 (DSMZ ACC-300), lentiviral transduction, puromycin selection, IL3 depletion
T2 sequence (P00533 with tags, fused parts or gaps INS769ASV): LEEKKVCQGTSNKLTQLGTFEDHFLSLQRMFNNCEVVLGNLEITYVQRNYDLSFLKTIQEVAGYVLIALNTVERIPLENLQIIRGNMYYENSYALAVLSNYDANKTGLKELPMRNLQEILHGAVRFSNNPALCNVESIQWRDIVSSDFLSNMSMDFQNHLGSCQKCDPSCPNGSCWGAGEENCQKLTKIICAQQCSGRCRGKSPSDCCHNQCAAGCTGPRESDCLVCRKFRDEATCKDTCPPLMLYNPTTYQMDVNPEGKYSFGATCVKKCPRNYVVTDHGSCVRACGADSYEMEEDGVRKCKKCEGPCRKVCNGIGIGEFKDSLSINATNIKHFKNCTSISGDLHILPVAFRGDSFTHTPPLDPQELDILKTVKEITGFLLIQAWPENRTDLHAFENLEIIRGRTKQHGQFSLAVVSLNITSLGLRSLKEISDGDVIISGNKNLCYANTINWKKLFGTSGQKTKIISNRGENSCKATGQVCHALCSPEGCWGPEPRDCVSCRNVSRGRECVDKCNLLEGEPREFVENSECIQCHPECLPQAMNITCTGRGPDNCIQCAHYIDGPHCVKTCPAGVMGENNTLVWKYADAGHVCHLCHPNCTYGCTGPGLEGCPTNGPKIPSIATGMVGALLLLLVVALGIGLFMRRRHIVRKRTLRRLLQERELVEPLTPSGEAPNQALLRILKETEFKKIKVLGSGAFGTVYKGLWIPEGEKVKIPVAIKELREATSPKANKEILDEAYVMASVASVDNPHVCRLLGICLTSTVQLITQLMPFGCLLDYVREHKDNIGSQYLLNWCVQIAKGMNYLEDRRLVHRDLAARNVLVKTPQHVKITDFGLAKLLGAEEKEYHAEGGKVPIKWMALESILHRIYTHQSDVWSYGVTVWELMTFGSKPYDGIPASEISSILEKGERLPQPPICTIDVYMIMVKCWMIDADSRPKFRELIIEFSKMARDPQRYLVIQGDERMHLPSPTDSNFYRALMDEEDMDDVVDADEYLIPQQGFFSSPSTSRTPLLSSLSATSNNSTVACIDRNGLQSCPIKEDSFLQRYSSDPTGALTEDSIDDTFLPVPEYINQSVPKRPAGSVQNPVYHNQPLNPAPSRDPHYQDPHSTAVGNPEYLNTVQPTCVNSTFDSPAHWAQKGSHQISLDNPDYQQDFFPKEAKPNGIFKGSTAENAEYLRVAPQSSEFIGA
The data set can be described thus: EGFR Exon20 ASV insertion cellular phosphorylation inhibition (MSD pEGFR Y1068/total EGFR).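 Also: electrochemiluminescent readout on an MSD SECTOR Imager, IL3-independent transduced cells in medium with 1% FBS, compound concentration series at 37 °C and 5% CO2.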 The settings on record: Ba/F3 EGFR ASV ins cells, 4 h compound, p-EGFR(Y1068)/total EGFR. Type of data set: cell-based.

For the next data set, the target named is T3, EGFR L858R&T790M (Homo sapiens, UniProt P00533, L858R/T790M).
T3 construct: host or cells: NCI-H1975
The data set can be described thus: EGFR L858R and T790M cellular phosphorylation inhibition in NCI-H1975 (MSD).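 Also: phosphorylated and total EGFR detected by electrochemiluminescence, cells exposed to compound in medium containing 1% FBS at 37 °C.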 Format: cell-based. The settings on record: NCI-H1975 cells, 4 h compound, p-EGFR(Y1068)/total EGFR; read-out: EGFR L858R and T790M mutation IC50.

Data set [3] addresses T4, human Her2 exon 20 insertion mutation YVMA (Homo sapiens, UniProt P04626, INS775YVMA).
T4 construct: expressed in transfected cells; host or cells: NIH-3T3, lentiviral transduction, puromycin selection
The data set can be described thus: Her2 Exon 20 YVMA insertion cellular phosphorylation inhibition (MSD p-Her2 Y1248/total Her2).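 Also: lentivirally transduced NIH-3T3 cells in 1% FBS medium, electrochemiluminescent MSD read-out, graded compound concentrations at 37 °C.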 Type of data set: cell-based. The conditions noted are these: Her2 YVMAins cells, 4 h compound.

Another data set concerns the target T5, WT EGFR (Homo sapiens, UniProt P00533).
T5 construct: host or cells: A-431
The data set can be described thus: WT EGFR cellular phosphorylation inhibition in A-431 (hEGF stimulated, MSD).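 Also: electrochemiluminescence read-out of EGFR Tyr1068 phosphorylation expressed as ratio to total EGFR, cells kept in medium with 1% FBS, compounds tested as a concentration series.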 The settings on record: A431 cells, 4 h compound, then 100 ng/ml hEGF 10 min. Type of data set: cell-based.

In the next data set the test system is Ba/F3 EGFR NPH ins cells. The data set can be described thus: Cell proliferation, Ba/F3 EGFR NPH ins (CellTiter-Glo, 72 h).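 Also: IL3-independent cells carrying constitutively phosphorylated EGFR, compound dilution series, viable cells quantified by ATP luminescence, growth relative to DMSO wells after subtracting pre-dosing (day 0) baseline.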 Format: cell-based. The conditions noted are these: Ba/F3 EGFR, 72 h, Ba/F3 EGFR NPH ins, 72 h proliferation; read-out: EGFR Exon20 NPH insertion GI50.
For the next data set, the system named is Ba/F3 EGFR ASV ins cells. The data set can be described thus: Cell proliferation, Ba/F3 EGFR ASV ins (CellTiter-Glo, 72 h).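 Also: IL3-independent Ba/F3 cells transduced with EGFR V769_D770insASV, cellular ATP luminescence after compound exposure, growth relative to DMSO control with the day-0 baseline reading subtracted.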 Type of data set: cell-based. The settings on record: Ba/F3 EGFR, 72 h, Ba/F3 EGFR ASV ins, 72 h proliferation; read-out: EGFR Exon20 ASV insertion GI50. On the technique in general: ATP-based viability assays read luminescence as a measure of living cells.

Data set [4] has as its system NCI-H1975 EGFR L858R/T790M cells. Description: Cell proliferation, NCI-H1975 EGFR L858R/T790M (CellTiter-Glo, 72 h).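 Also: viable cells quantified by luciferase-based ATP luminescence, proliferation expressed relative to DMSO-treated wells (100%) after subtracting a parallel plate read at the time of dosing.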 Format: cell-based. The settings on record: Homo sapiens, NCI-H1975, 72 h, NCI-H1975, 72 h proliferation; read-out: EGFR L858R and T790M mutation GI50.
For data set [5], the system named is Her2 exon 20 insertion YVMA transduced NIH-3T3 cell line. The data set can be described thus: Cell proliferation, Her2 YVMAins NIH-3T3 (CellTiter-Glo, 72 h).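 Also: viable cells quantified by ATP luminescence, growth over a day-zero baseline plate expressed as percent of DMSO control growth, compound dilution series in 10% FBS medium.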 Type of data set: cell-based. The settings on record: Mus musculus, NIH3T3, 72 h, Her2 YVMAins cells, 72 h proliferation; read-out: Her2 Exon 20 YVMA insertion GI50.
In a further data set the test system is WT EGFR cell line A-431. Description: Cell proliferation, WT EGFR A431 (CellTiter-Glo, 72 h).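 Also: proliferation from a luminescent ATP viability signal, expressed as 100 × (treated minus time-zero plate) over (DMSO control minus time-zero plate), cells grown with 10% FBS.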 The conditions noted are these: Homo sapiens, A-431, 72 h, A431, 72 h proliferation; read-out: EGFR WT A431 GI50. Format: cell-based.
In a further data set the test system is OCI-LY-10 cells. The data set can be described thus: BTK (wt) cell proliferation, OCI-LY-10 (CellTiter-Glo, 72 h).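 Also: viable cells quantified via cellular ATP luminescence, proliferation given as percent of DMSO control after subtracting a duplicate plate read at time of dosing.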 Type of data set: cell-based. The settings on record: Homo sapiens, OCI-Ly10, 72 h, OCI-LY-10 cells, 72 h, CellTiter-Glo; read-out: BTK WT OCI-LY-10 GI50.
The next data set has as its system TMD-8 cells. Description: BTK (wt) cell proliferation, TMD-8 (CellTiter-Glo, 72 h).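 Also: viable cells quantified by ATP-based luminescence, proliferation expressed as percent of DMSO control after subtracting a time-zero baseline plate read at dosing.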 Format: cell-based. The conditions noted are these: Homo sapiens, TMD8, 72 h, TMD-8 cells, 72 h, CellTiter-Glo; read-out: BTK WT TMD-8 GI50.
Another data set concerns Ri-1 cells. Description: BTK (wt) cell proliferation, Ri-1 (CellTiter-Glo, 72 h).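 Also: viable cells quantified as cellular ATP luminescence, proliferation normalized to a time-zero plate and the DMSO control, compounds tested across a dilution series.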 Type of data set: cell-based. The settings on record: Ri-1, 72 h, Ri-1 cells, 72 h, CellTiter-Glo; read-out: BTK WT Ri-1 GI50.
A further data set has as its system DB cells. The data set can be described thus: BTK (wt) cell proliferation, DB (CellTiter-Glo, 72 h).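 Also: DB cells in 384-well plates given a dilution series of compound, viable cells read by ATP luminescence, growth expressed versus DMSO control after subtracting a time-zero plate reading.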 Format: cell-based. The conditions noted are these: Homo sapiens, DB, DB cells, CellTiter-Glo, read-out: Non-BCR activated DB GI50.
A short description of data set [6]: Rat pharmacokinetic study after oral administration (SOA). The settings on record: male Han Wistar rats; for SOA DN AUCSYS (ng·h/mL)/(mg/kg): dose-normalised systemic AUC; for Cmax: rat, plasma, nominal 10 mg/kg (actual dose in c1). Format: in vivo. As to the method:
For rat pharmacokinetic studies, six male Han Wistar rats were purchased from Beijing Vital River and orally dosed with the test compound at 10 mg/kg in 0.5% Tween-80 and 0.5% hydroxypropyl methylcellulose (v/w). At, 0.5, 1, 2, 4, 7 and 16 hours post-dose, blood samples (>100 µL/time point) were collected from portal vein and via cardiac puncture into separate K2EDTA […] tubes, and then immediately centrifuged at 1500 g, 5 min at 4° C. to separate plasma. The plasma samples were deproteinized with 4 fold acetonitrile (including internal standard), vortex for 10 min and centrifuges for 10 minutes at 4000 g at 4° C.. The supernatantswere submitted to LC/MS/MS (API 5500, Applied Biosystems, Foster City) analysis. Two sets of standard curves were run at the beginning and end of each batch from plasma sample analysis.
Compound absorption was measured by portal vein AUC (AUCHPV) and systemic AUC (AUCSYS) observed maximum concentration (Cmax) in rats after oral administration. Dose is the actual dose used in SOA study. Find below in Table 9 data for exemplary tested compounds.

Data set [7] can be described thus: In vitro rat hepatocytes clearance assay. The conditions noted are these: male, rat, cryopreserved rat hepatocytes (suspension), rat hepatocytes Clint (µL/min/10^6cells), 1 µM-range incubation up to 100 min.
A short description of data set [8]: In vitro human hepatocytes clearance assay. The settings on record: both, human, cryopreserved human hepatocytes (suspension), human hepatocytes Clint (µL/min/10^6cells), mixed gender human hepatocytes, incubation up to 100 min.
Description: The protocol for rat/human hepatocytes metabolic stability assay is employed to determine the clearance of the compounds of the present disclosure in vitro.
Rat hepatocytes in male gender and human hepatocytes in mixed gender were obtained from commercial vendors (e.g., BioreclamationIVT) and stored at -150° C. prior to use. 10 mM stock solutions of tested compounds were prepared in DMSO. Thawing medium and supplement incubation medium (serum-free) were placed in a 37° C. water bath for at least 15 minutes prior to use. Stock solutions were diluted to 100 µM by combining 198 µL acetonitrile and 2 µL of 10 mM stock solution.
Vials of cryopreserved hepatocytes were removed from storage, ensured that vials remain at cryogenic temperatures. The vials were thawed in a 37° C. water bath with gently shaking. Vials were kept in water bath until all ice crystals had dissolved and were no longer visible. Vials were sprayed with 70% ethanol before being transferred to a biosafety cabinet. And then the contents were poured into the 50 mL thawing medium conical tube. Vials were centrifuged at 100 g for 10 minutes at room temperature.
Cell viability and density were counted using a Trypan Blue exclusion, and then cells were diluted with serum-free incubation medium to a working cell density of 1 × 10^6 viable cells/ml. […] The inactivated hepatocytes were used to prepare negative samples, which were used to exclude the misleading factor that resulted from instability of chemical itself.
Aliquots of 247.5 µL hepatocytes were dispensed into each well of a 96-well non-coated plate. The plate was placed in the incubator on an orbital shaker for approximately 10 minutes. Aliquots of 2.5 µL of the 100 µM test compounds were added into respective wells of the non-coated 96-well plate to start the reaction. This assay was performed in duplicate. The plate was incubated in the incubator on an orbital shaker for the designed time points. […] Samples were centrifuges for 20 minutes at 4000 g and aliquots of 100 µL of the supernatants were used for LC-MS/MS analysis for measurement of test compounds
In vitro hepatocyte clearance was estimated based on determination of elimination half-life (T½) of compounds disappearance from their initial concentrations. Peak area ratios of each compound (test or control) to IS was calculated. Ln (%Control) versus Incubation Time (min) curve was plotted, and the slope of a linear fitting line was calculated.

T1 sequence (P00533 with tags, fused parts or gaps INS773NPH): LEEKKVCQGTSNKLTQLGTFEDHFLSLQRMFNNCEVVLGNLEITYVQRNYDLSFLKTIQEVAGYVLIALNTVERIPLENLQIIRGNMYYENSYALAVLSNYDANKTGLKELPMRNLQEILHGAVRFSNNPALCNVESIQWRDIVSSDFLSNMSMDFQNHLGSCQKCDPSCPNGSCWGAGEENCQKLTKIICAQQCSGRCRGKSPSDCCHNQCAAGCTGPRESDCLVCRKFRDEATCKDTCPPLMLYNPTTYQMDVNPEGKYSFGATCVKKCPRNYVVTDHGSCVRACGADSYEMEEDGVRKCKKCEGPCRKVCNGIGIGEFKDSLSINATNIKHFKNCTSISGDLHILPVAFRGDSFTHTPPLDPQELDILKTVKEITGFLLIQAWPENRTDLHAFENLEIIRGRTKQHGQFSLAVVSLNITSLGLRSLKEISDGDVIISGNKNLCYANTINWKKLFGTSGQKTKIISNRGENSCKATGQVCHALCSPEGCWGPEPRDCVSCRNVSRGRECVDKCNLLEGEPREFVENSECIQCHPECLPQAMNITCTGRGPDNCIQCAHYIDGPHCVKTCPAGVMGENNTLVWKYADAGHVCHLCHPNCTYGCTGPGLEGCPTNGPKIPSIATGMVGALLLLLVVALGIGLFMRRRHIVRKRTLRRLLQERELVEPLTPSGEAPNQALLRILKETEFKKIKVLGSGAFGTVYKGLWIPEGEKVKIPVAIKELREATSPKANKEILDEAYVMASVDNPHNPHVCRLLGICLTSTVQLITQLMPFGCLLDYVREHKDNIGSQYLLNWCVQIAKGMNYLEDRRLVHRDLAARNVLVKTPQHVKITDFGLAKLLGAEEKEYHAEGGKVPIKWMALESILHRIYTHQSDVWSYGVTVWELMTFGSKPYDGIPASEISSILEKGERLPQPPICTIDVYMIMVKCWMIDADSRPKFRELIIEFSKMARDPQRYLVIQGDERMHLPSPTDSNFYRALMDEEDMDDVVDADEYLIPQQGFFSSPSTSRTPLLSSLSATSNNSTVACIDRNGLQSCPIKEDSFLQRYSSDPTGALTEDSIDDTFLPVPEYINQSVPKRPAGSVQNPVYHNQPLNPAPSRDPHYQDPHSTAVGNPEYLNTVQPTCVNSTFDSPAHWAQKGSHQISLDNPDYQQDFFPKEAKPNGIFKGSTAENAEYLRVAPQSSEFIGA
T5 sequence (P00533 25-1210): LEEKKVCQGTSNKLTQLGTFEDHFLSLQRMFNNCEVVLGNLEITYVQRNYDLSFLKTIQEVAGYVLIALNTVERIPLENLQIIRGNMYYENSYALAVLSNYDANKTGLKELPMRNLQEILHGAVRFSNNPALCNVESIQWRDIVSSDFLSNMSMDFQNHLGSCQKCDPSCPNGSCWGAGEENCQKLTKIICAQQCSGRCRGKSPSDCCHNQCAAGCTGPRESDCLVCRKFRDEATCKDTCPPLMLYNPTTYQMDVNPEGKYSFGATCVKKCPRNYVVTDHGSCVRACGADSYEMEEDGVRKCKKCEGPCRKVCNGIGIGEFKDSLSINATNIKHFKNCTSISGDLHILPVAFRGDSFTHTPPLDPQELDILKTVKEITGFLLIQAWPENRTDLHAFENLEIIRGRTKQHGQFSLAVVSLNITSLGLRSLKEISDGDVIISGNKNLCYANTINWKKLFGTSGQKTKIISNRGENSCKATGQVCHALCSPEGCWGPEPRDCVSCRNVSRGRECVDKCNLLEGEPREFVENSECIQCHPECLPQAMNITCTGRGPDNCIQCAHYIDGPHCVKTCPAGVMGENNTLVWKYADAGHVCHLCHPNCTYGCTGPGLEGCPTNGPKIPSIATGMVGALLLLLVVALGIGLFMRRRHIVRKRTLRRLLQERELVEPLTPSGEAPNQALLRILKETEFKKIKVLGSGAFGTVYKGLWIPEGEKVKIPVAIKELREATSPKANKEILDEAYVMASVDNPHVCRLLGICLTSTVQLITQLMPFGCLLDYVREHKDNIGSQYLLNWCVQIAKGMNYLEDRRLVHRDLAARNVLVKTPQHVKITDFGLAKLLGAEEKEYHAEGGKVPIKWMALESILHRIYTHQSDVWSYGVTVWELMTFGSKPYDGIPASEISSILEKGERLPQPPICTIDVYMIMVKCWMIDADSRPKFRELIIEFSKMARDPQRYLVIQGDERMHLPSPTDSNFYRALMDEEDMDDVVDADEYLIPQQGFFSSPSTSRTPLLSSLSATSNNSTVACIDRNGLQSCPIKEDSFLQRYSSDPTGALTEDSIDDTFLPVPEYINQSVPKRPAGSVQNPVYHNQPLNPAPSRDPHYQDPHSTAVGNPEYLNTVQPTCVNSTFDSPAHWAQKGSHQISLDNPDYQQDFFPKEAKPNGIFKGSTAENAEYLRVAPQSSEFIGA
T4 sequence (P04626 with tags, fused parts or gaps INS775YVMA): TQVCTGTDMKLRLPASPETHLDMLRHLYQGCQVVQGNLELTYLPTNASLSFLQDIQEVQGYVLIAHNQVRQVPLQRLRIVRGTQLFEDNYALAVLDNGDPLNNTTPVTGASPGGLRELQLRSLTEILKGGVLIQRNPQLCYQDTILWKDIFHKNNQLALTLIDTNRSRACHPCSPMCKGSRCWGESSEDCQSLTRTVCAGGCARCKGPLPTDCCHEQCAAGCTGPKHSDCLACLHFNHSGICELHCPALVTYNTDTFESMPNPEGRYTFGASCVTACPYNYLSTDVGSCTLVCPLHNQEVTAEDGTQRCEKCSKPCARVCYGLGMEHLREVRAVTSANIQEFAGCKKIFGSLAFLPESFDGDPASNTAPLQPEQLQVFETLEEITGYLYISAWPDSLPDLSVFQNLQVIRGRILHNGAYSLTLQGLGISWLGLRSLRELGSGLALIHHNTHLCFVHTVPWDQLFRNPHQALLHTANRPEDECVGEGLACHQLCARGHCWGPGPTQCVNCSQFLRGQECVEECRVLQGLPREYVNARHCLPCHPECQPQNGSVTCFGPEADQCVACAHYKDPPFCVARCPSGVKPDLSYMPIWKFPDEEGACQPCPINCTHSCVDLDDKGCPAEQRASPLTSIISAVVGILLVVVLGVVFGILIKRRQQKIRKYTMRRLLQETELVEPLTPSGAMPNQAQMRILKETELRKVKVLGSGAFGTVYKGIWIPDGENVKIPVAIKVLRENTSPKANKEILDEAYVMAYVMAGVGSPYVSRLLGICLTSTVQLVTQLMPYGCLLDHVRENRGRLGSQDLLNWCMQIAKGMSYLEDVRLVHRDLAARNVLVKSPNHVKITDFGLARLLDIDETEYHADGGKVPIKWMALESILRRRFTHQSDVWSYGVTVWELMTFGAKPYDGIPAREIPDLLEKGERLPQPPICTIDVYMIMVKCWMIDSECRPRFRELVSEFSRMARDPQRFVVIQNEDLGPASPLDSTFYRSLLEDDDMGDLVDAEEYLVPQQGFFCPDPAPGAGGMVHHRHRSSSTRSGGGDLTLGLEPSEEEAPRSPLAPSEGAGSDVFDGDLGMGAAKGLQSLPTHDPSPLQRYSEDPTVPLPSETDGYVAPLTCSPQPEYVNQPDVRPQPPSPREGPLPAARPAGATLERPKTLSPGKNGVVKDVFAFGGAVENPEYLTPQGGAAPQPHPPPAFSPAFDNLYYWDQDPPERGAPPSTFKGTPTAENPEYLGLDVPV
Description for DB cells: OCI-LY-10 at 3,750 cells/well, TMD-8 and Ri-1 at 2,000 cells/well, and DB at 1,250 cells/well, respectively, were sorted into 384-well plates in RPMI1640 medium with 10% FBS. After overnight incubation, all cells were incubated with compound at a series of concentrations. Meanwhile, a duplicated plate of each cell line was prepared for measuring G0 value. The dosed plates were further incubated for 72 hours and the number of viable cells was measured by CellTiter-Glo® Luminescent Cell Viability Assay (Promega), a luminescent method for determining the number of viable cells through measurement of cellular ATP concentration using Envision plate reader (PerkinElmer). The percentage of proliferation was calculated as: % Proliferation = 100 × (G3 value of sample well - G0 value)/(G3 value of DMSO control - G0 value).
Description for WT EGFR cell line A-431: WT or mutant cells were seeded in 384 well plates at appropriate concentrations with corresponding growth media supplemented with 10% FBS, for each experiment, identical plates were prepared in duplicates, and the plates were incubated overnight. On the next day, one of each duplicated plates was dosed with tested compounds at a series of concentrations, and another one of the duplicated plate was analysied for G0 value. The dosed plates were incubate for another 72 h at 37° C. with 5% CO2 and the number of viable cells in each well of the G0 plates or the dosed plates were measured by CellTiter-Glo® Luminescent Cell Viability Assay (Promega). This assay is a luminescent method for determining the number viable cells through measurement of cellular ATP concentration by detection of luciferase activity. Detection reagents (15 µl) was dispensed into per well, and the plates were incubate for 30 min at room temperature. Then, the luminescence in each well was measured using the Envision plate reader (PerkinElmer). The percentage of proliferation was calculated based on the formula: %Proliferation= 100 × (G3 value of sample well-Go value)/(G3 value of DMSO control-Go value).

In the case of `C=CC(=O)Nc1cc(Nc2ncnc(Nc3cc(Cl)c(F)cc3C(C)(C)O)n2)c(OC)cc1N1CC[C@@H](N(C)C)C1` [Compound 33, (R)-N-(5-(4-(5-chloro-4-fluoro-2-(2-hydroxypropan-2-yl)phenylamino)-1,3,5-triazin-2-ylamino)-2-(3-(dimethylamino)pyrrolidin-1-yl)-4-methoxyphenyl)acrylamide], the IC50 (as a rule, the point on the concentration scale where inhibition reaches its midpoint) in data set [1] was found to be 14 nM; in data set [2], 6.9 nM; at EGFR L858R&T790M, 0.6 nM; in data set [3], 7.8 nM; against WT EGFR, 12.2 nM. Further, the GI50 – broadly, the concentration giving 50% growth inhibition – in the data set on Ba/F3 EGFR NPH ins cells came to 29.6 nM; with Ba/F3 EGFR ASV ins cells, 22.1 nM; in data set [4], 3.1 nM; in data set [5], 71.1 nM; with WT EGFR cell line A-431, 12.7 nM; with OCI-LY-10 cells, 0.97 nM. The GI50 was 2.5 nM in the data set with TMD-8 cells, 2 nM in the data set with Ri-1 cells and > 3000 nM with DB cells. Further, the “SOA DN AUCSYS (ng·h/mL)/(mg/kg)” value in [6] is 432 (ng·h/mL)/(mg/kg). The Cmax – broadly, the maximum level reached in the sampled fluid or tissue – in data set [6] was found to be 370 ng/mL. Also, the hepatocyte CLint (as a rule, the rate of metabolic loss divided by the concentration) at 1 µM came to 6.99 µL/min/1e6 cells in data set [7] and 2.77 µL/min/1e6 cells in data set [8].
Regarding `C=CC(=O)Nc1cc(Nc2nccc(Nc3cc(Cl)c(F)cc3C(C)(C)O)n2)c(OC)cc1N1C[C@@H](F)[C@@H](N(C)C)C1` [Compound 79, N-(5-(4-(5-chloro-4-fluoro-2-(2-hydroxypropan-2-yl)phenylamino)pyrimidin-2-ylamino)-2-((3 S,4R)-3-(dimethylamino)-4-fluoropyrrolidin-1-yl)-4-methoxyphenyl)acrylamide], the IC50 came to 29.5 nM in [1]; 43.2 nM in data set [2]; 1.3 nM on EGFR L858R&T790M; 18.8 nM in data set [3]; 356 nM against WT EGFR. In addition, the GI50 is 167 nM in the data set on Ba/F3 EGFR NPH ins cells; 176 nM in the data set with Ba/F3 EGFR ASV ins cells; 13 nM in data set [4]; 233 nM in [5]; 124 nM in the data set with WT EGFR cell line A-431; 8.1 nM in the data set with OCI-LY-10 cells. The GI50 was 14.4 nM in the data set with TMD-8 cells, 80.9 nM in the data set on Ri-1 cells and > 3000 nM in the data set on DB cells. Also, in data set [6], the “SOA DN AUCSYS (ng·h/mL)/(mg/kg)” value is recorded as 50.1 (ng·h/mL)/(mg/kg). The same molecule yielded a Cmax in [6] of 52.5 ng/mL. The values for the hepatocyte CLint at 1 µM in [7] and in [8] were 24.1 µL/min/1e6 cells and 7.36 µL/min/1e6 cells, respectively.
Consider `C=CC(=O)Nc1cc(Nc2nccc(Nc3cc(Cl)c(F)cc3C(C)(C)O)n2)c(OC)cc1N1CC[C@@H](CN(C)C)C1` [Compound 86, (S)-N-(5-(4-(5-chloro-4-fluoro-2-(2-hydroxypropan-2-yl)phenylamino)pyrimidin-2-ylamino)-2-(3-((dimethylamino)methyl)pyrrolidin-1-yl)-4-methoxyphenyl)acrylamide], for which the IC50 is 21.5 nM in [1]; 17.9 nM in [2]; 0.6 nM at EGFR L858R&T790M; 9.3 nM in data set [3]; 195 nM against WT EGFR. Also, the GI50 in the data set on Ba/F3 EGFR NPH ins cells was determined as 59.8 nM; in the data set on Ba/F3 EGFR ASV ins cells, 90.9 nM; in [4], 29.1 nM; in data set [5] it was 249 nM; in the data set on WT EGFR cell line A-431 it was 45.8 nM; with OCI-LY-10 cells, 7.8 nM. For the same molecule, the GI50 was 11.4 nM with TMD-8 cells, 18.6 nM in the data set with Ri-1 cells and > 3000 nM in the data set with DB cells. Besides, the “SOA DN AUCSYS (ng·h/mL)/(mg/kg)” value in data set [6] is given as 77.8 (ng·h/mL)/(mg/kg). Further, the Cmax in data set [6] was 76.5 ng/mL. The figures for the hepatocyte CLint at 1 µM in data set [7] and in data set [8] were 16.2 µL/min/1e6 cells and 4.32 µL/min/1e6 cells, respectively.
Turning to `C=CC(=O)Nc1cc(Nc2ncnc(Nc3cc(Cl)c(F)cc3C(C)(C)O)n2)c(OC)cc1N1C[C@@H](F)[C@@H](N(C)C)C1` [Compound 93, N-(5-(4-(5-chloro-4-fluoro-2-(2-hydroxypropan-2-yl)phenylamino)-1,3,5-triazin-2-ylamino)-2-((3 S,4R)-3-(dimethylamino)-4-fluoropyrrolidin-1-yl)-4-methoxyphenyl) acrylamide], the IC50 in [1] worked out at 33.1 nM; in data set [2] it was 19.4 nM; on EGFR L858R&T790M it was 1.6 nM; in data set [3], 15.1 nM; against WT EGFR, 51.6 nM. Moreover, the GI50 in the data set with Ba/F3 EGFR NPH ins cells is 105 nM; in the data set on Ba/F3 EGFR ASV ins cells it was 83.2 nM; in [4] it was 7.3 nM; in [5], 166 nM; in the data set with WT EGFR cell line A-431, 21.5 nM; in the data set on OCI-LY-10 cells it was 0.92 nM. Besides, the GI50 in the data set with TMD-8 cells was 3.1 nM; in the data set with Ri-1 cells, 3.2 nM; in the data set with DB cells, > 3000 nM. For the same molecule, the “SOA DN AUCSYS (ng·h/mL)/(mg/kg)” value in [6] was 249 (ng·h/mL)/(mg/kg). The same molecule had a Cmax in data set [6] of 498 ng/mL. In addition, the results for the hepatocyte CLint at 1 µM in [7] and in [8] were 11.5 µL/min/1e6 cells and 5.01 µL/min/1e6 cells, respectively.
For the molecule `C=CC(=O)Nc1cc(Nc2nccc(Nc3cc(Cl)c(F)cc3C(C)(C)O)n2)c(OC)cc1N1C[C@@H]2CN(C)C[C@@H]21` [Compound 96, N-(5-(4-(5-chloro-4-fluoro-2-(2-hydroxypropan-2-yl)phenylamino)pyrimidin-2-ylamino)-4-methoxy-2-((1S,5R)-3-methyl-3,6-diazabicyclo[3.2.0]heptan-6-yl)phenyl)acrylamide], the IC50 in [1] was 13.5 nM; in [2], 7.1 nM; on EGFR L858R&T790M, 0.4 nM; in data set [3], 2.1 nM; at WT EGFR, 50.4 nM. Besides, the GI50 was determined as 50 nM in the data set on Ba/F3 EGFR NPH ins cells; 55.6 nM in the data set on Ba/F3 EGFR ASV ins cells; 0.8 nM in data set [4]; 50 nM in data set [5]; 17.8 nM in the data set on WT EGFR cell line A-431; 7.04 nM in the data set on OCI-LY-10 cells. The GI50 with TMD-8 cells was 2.8 nM; in the data set with Ri-1 cells it was 25.1 nM; with DB cells, 2990 nM. The hepatocyte CLint at 1 µM in [7] is 13.2 µL/min/1e6 cells; in [8], 1.42 µL/min/1e6 cells.
